The text below walks through data of ChEMBL document CHEMBL1137947, “Novel nevirapine-like inhibitors with improved activity against NNRTI-resistant HIV: 8-heteroarylthiomethyldipyridodiazepinone derivatives” (Bioorg Med Chem Lett, 2004).

Molecules are shown by their SMILES. Where only a bound is given, the exact number is not on record here.

Data set [1] is described as follows: Plasma clearance in rats. The following applies: rat. The data set is classed as ADME, organism-based.
The nature of data set [2]: Volume of distribution at steady state was evaluated in rats. Format: ADME, organism-based. As to conditions: rat, in vivo; read-out: Vss.
Data set [3] in a line: Bioavailability in rats was evaluated. Format: ADME, organism-based. As to conditions: rat, in vivo; read-out: Bioavailabiility.
Data set [4] is described as follows: Maximum concentration was evaluated in rats. Format: ADME, organism-based. The following applies: rat, in vivo.
A short description of data set [5]: Half-life for oxidative metabolic stability was determined using rat liver microsomes. The data set is classed as ADME, Microsome.
The next data set concerns the target Cytochrome P450 2C19 (Homo sapiens, UniProt P33261). Nature of the data set: Inhibition of cytochrome P450 2C19. The data set is classed as ADME.
Data set [6] concerns the target T1, Cytochrome P450 2C9 (Homo sapiens, UniProt P11712). Nature of the data set: Inhibition of cytochrome P450 2C9. The data set is classed as ADME.
Data set [7] has as its target T2, Cytochrome P450 1A2 (Homo sapiens, UniProt P05177).
T2 sequence (P05177 whole entry): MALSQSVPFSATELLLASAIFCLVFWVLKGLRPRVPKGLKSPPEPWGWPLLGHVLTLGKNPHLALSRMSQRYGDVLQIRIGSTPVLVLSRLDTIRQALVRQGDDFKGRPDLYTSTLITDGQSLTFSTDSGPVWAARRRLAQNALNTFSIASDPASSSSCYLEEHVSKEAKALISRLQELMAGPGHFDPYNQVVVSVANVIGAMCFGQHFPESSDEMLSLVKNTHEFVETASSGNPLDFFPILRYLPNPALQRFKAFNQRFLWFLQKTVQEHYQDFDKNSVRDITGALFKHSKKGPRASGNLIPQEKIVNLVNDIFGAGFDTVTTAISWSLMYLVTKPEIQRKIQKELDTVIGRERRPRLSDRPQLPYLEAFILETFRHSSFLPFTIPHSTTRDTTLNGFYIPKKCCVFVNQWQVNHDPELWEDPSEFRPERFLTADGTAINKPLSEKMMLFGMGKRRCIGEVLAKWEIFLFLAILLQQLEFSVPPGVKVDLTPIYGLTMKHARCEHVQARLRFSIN
Nature of the data set: Inhibition of cytochrome P450 1A2. The data set is classed as ADME.

In data set [8] the target is T3, Cytochrome P450 3A4 (Homo sapiens, UniProt P08684). Nature of the data set: Inhibition of CYP450 (Cytochrome P450) 3A4 with fluorogenic substrate BFC. Format: ADME.
T3 sequence (P08684 whole entry): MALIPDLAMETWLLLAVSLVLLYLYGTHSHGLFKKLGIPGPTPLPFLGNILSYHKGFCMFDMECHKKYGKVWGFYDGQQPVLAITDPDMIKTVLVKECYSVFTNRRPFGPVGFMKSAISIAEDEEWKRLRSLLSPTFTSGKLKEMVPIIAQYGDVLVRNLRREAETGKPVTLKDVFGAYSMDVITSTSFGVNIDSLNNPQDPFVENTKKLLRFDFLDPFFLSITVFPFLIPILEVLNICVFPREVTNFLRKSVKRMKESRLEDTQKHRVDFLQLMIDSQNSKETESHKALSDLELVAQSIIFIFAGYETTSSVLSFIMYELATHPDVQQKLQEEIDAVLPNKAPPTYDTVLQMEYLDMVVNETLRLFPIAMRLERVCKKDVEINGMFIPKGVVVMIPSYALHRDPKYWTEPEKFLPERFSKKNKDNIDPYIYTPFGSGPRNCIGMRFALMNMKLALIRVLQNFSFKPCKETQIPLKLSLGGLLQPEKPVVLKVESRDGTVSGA
For data set [9], the target named is T3, Cytochrome P450 3A4. The data set is described as follows: Inhibition of CYP450 (Cytochrome P450) 3A4 with fluorogenic substrate BQ. Format: ADME.
The target of data set [10] is T4, Cytochrome P450 2D6 (Homo sapiens, UniProt P10635). The data set is described as follows: Inhibition of cytochrome P450 2D6. Format: ADME.
T4 sequence (P10635 whole entry): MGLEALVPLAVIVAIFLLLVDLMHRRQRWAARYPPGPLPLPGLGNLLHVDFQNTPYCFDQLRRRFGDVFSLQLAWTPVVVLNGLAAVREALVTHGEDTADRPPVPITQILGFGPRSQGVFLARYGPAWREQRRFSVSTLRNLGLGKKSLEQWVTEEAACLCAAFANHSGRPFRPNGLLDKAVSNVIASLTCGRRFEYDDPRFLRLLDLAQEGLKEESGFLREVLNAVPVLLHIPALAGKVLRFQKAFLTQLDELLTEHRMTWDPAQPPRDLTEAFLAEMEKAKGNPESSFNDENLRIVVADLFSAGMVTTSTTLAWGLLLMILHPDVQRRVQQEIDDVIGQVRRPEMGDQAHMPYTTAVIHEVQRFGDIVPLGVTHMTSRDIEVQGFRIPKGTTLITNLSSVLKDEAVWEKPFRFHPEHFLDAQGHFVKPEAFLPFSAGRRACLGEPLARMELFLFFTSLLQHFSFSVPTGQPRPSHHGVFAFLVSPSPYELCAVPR
Data set [11] relates to Human immunodeficiency virus 1. Nature of the data set: Effective concentration against mutant K103N/Y181C of HIV-1. The data set is classed as functional, organism-based.
Data set [12] has as its system Human immunodeficiency virus 1. Nature of the data set: Effective concentration against wild-type HIV-1. Format: functional, organism-based.
Data set [13] has as its system Human immunodeficiency virus 1. Nature of the data set: Inhibitory activity against HIV-1 mutant strain K103N/Y181C. Format: functional, organism-based.
For data set [14], the target named is Human immunodeficiency virus type 1 reverse transcriptase (Human immunodeficiency virus 1, UniProt Q72547). The data set is described as follows: Inhibitory activity against wild type reverse transcriptase (WT RT) of HIV-1.
A short description of data set [15]: Half-life consistent with the observed metabolic steady state in rats. Format: ADME, organism-based. The following applies: rat, in vivo.
A further data set is filed under the species Homo sapiens. The data set is described as follows: Half-life for oxidative metabolic stability was determined using male human. The following applies: in vitro.
Data set [16] concerns the target T2, Cytochrome P450 1A2. The data set is described as follows: Inhibition of CYP450 (Cytochrome P450) 1A2. Format: ADME.
Data set [17] addresses T1, Cytochrome P450 2C9. The data set is described as follows: Inhibition of CYP450 (Cytochrome P450) 2C9. The data set is classed as ADME.
Data set [18] has as its target T4, Cytochrome P450 2D6. The data set is described as follows: Inhibition of CYP450 (Cytochrome P450) 2D6. Format: ADME.

Cytochrome P450 2C19, sequence (P33261 whole entry): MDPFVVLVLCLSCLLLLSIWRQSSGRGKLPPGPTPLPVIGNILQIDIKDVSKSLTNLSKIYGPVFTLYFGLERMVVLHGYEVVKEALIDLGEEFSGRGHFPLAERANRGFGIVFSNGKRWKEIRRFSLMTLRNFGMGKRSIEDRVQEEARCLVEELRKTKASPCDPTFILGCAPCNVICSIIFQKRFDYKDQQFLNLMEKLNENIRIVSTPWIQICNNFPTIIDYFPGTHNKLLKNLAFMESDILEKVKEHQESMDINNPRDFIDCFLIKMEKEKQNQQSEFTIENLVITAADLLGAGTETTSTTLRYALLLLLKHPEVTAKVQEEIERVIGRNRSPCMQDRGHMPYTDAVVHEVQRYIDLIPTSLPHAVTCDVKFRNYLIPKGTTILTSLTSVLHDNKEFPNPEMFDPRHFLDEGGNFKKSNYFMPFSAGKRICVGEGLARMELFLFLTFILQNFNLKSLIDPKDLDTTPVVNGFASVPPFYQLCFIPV
T1 sequence (P11712 whole entry): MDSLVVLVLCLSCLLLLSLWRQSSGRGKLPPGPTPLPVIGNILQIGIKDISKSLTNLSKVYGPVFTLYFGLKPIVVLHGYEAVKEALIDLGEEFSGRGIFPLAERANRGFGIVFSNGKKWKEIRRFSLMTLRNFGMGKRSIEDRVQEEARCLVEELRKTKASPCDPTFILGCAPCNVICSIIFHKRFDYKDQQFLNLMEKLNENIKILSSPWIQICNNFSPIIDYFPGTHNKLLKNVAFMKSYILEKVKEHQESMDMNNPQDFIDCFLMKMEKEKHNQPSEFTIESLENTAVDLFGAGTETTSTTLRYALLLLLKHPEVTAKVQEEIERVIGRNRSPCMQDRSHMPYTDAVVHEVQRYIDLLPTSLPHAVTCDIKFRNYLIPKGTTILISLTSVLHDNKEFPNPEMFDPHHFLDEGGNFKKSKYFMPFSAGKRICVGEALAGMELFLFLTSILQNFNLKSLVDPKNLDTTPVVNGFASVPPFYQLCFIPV

By clearance is commonly meant the volume of plasma or blood freed of the substance per unit of time. As usually defined, the Cmax is the maximum level reached in the sampled fluid or tissue. As usually defined, the half-life is how long it takes for the measured level to halve. The low end stands for rapid decline, the high end for slow decline. In general, IC50 refers to the concentration that inhibits the measured activity by half. One may read the EC50 as the midpoint of the concentration-response curve. Read a low EC50 as an effect from little substance. Turning to `CCN1c2ncc(CSc3cc(C)nc(C)c3)cc2C(=O)Nc2c(C)cc(Cl)nc21`, the clearance in data set [1] amounted to 57 mL/min/kg. Also, the Vd in data set [2] was determined as 4.68 L/kg. Also, in [3], the bioavailability was 76%. Further, in data set [4], the Cmax was 800 nM. Moreover, the half-life is 4 min in data set [5], 90 min in [15] and 7 min in the data set listed under Homo sapiens. In addition, the IC50 against Cytochrome P450 2C19 amounted to 4200 nM; at Cytochrome P450 2C9 [6] it was 2600 nM; against Cytochrome P450 1A2 [7], 23000 nM; against Cytochrome P450 3A4 [8] it was 2300 nM; against Cytochrome P450 3A4 [9], 8100 nM; at Cytochrome P450 2D6 [10], 27000 nM. The IC50 was 60 nM in data set [13] and 7 nM in data set [14]. In addition, the EC50 in [11] is 14 nM; in data set [12] it was 1.2 nM.
The molecule `CCN1c2ncc(CSc3nc(C)cc(C)n3)cc2C(=O)Nc2c(C)cc(Cl)nc21` gave a 50% effective concentration (EC50) in [12] of 1.5 nM. Besides, the 50% inhibitory concentration (IC50) in data set [13] was found to be 320 nM; in data set [14], 6 nM.
Turning to `Cc1cc(SCc2cnc3c(c2)C(=O)Nc2c(C)cc(Cl)nc2N3C2CC2)cc(C)n1`, the EC50 was 104 nM in data set [11] and 2.2 nM in [12]. For the same molecule, the IC50 in [13] came out at 280 nM; in data set [14], 12 nM.
`CCN1c2ncc(CSc3ccncc3)cc2C(=O)Nc2c(C)cc(Cl)nc21`: it took 0.48 nM to reach a half-maximal effect in data set [12] (EC50). Besides, the IC50 was 80 nM in data set [13] and 2.2 nM in data set [14].
Take `CCN1c2ncc(CSc3cc(C)nc(C)c3)cc2C(=O)Nc2c(C)ccnc21`: the half-life (in data set [5]; in the data set filed under Homo sapiens) was 9 min throughout. For the same molecule, the IC50 at Cytochrome P450 2C19 is 26000 nM; on Cytochrome P450 1A2 [16], > 30000 nM; against Cytochrome P450 2C9 [17] it was 7400 nM; at Cytochrome P450 2D6 [18] it was > 30000 nM; on Cytochrome P450 3A4 [8], 1600 nM; against Cytochrome P450 3A4 [9], 10000 nM. The IC50 in data set [13] is 170 nM; in [14], 4.2 nM. Also, the EC50 in data set [11] was found to be 12 nM; in [12], 0.46 nM.
For `CCN1c2ncc(CSc3ccnc(C)c3)cc2C(=O)Nc2c(C)cc(Cl)nc21`, a half-maximal response in [12] (EC50) required 3.4 nM. Moreover, the values for the IC50 in data set [13] and in data set [14] were 310 nM and 27 nM, respectively.
As for `CCN1c2ncc(CSc3nc4ccccc4o3)cc2C(=O)Nc2c(C)cc(Cl)nc21`, in data set [12], a half-maximal effect (EC50) was put at 2.7 nM. The figures for the IC50 in data set [13] and in data set [14] were 230 nM and 8 nM, respectively.
The matching figures for `CCN1c2ncc(CSc3ccncc3C)cc2C(=O)Nc2c(C)cc(Cl)nc21`: 3.1 nM, 1640 nM and 11 nM.
`CCN1c2ncc(CSc3cncnc3)cc2C(=O)Nc2c(C)cc(Cl)nc21` showed an EC50 in [12] of 7.8 nM. The IC50 in data set [13] was 5000 nM; in data set [14], 26 nM.
In the case of `CCN1c2ncc(CSc3cc(C)nc(C)c3)cc2C(=O)Nc2c(C)cc(F)nc21`, the half-life (in data set [5]; in the data set listed under Homo sapiens) was 5 min each time. In addition, the IC50 against Cytochrome P450 2C19 came out at 5400 nM; at Cytochrome P450 2C9 [6] it was 4500 nM; at Cytochrome P450 1A2 [7], 26000 nM; on Cytochrome P450 2D6 [18], 27000 nM; on Cytochrome P450 3A4 [8], 2500 nM; against Cytochrome P450 3A4 [9], 10000 nM. The IC50 in data set [13] is 120 nM; in data set [14] it was 6.9 nM. Moreover, the EC50 stood at 21 nM in data set [11] and 1 nM in data set [12].
In [12], `CCN1c2ncc(CSc3ccncc3)cc2C(=O)N(C)c2ccc(Cl)nc21` came in with an EC50 of 0.31 nM. The IC50 in [13] is 26 nM; in [14], 3 nM.
